Test results taken from patent publication US20060205826A1, “Method of using carotenoids in the prevention of cognitive decline and for other neuroprotection functions” (priority 2005, published 2006).
“Also recorded” adds a separate entry of the source.

Tests used:
Format in all cases: in vivo
alloxan diabetic mice = assay: Morris water maze (spatial learning and memory) in diabetic mice
Procedure: Male albino mice were used throughout the study, housed in a environmentally regulated room on a dark-light cycle of 12 hours with free access to food and water. Principles of laboratory animal care (NIH publication no. 85-23, revised 1985) were followed, as well as specific Spanish regulations. Animals were made diabetic with a single subcutaneous injection of 200 mg alloxan/kg body weight (66 mg/ml) in 0.1 M citrate buffer, pH 4.5, at day 0 of the experiment. Control mice were injected with the same volume of vehicle also at day 0 of the experiment. Mice were identified as diabetic on the basis of blood glucose levels (higher than 16 mM at least 4 days after alloxan treatment). Animals were divided into subgroups as required by the experiment (control, control+lutein, diabetic, diabetic+lutein, diabetic+insulin, diabetic+insulin+lutein). Lutein was administered daily at a dose of 0.2 mg/kg p.o since day 4 after alloxan or citrate buffer injection until the end of the experiment. […] Glycated hemoglobin was determined in blood samples obtained by heart puncture immediately before killing the animals. […] We measured the duration from the time the mouse was dropped into the maze to the time the mouse climbed onto the platform (latency time). The latency was recorded manually using a stopwatch. […] The percentage of time spent in each of the pool quadrants was also recorded.

[1] = system: MDA, a lipid peroxidation product; assay: MDA concentration by liquid chromatography in serum, eye and hippocampus of diabetic mice
Procedure: Male albino mice were used throughout the study, housed in a environmentally regulated room on a dark-light cycle of 12 hours with free access to food and water. Principles of laboratory animal care (NIH publication no. 85-23, revised 1985) were followed, as well as specific Spanish regulations. Animals were made diabetic with a single subcutaneous injection of 200 mg alloxan/kg body weight (66 mg/ml) in 0.1 M citrate buffer, pH 4.5, at day 0 of the experiment. Control mice were injected with the same volume of vehicle also at day 0 of the experiment.
Mice were identified as diabetic on the basis of blood glucose levels (higher than 16 mM at least 4 days after alloxan treatment). Animals were divided into subgroups as required by the experiment (control, control+lutein, diabetic, diabetic+lutein, diabetic+insulin, diabetic+insulin+lutein). […] Insulin treated animals were injected daily with 500 mU/g body weight since day 4 until the end of the experiment. Mice were killed by cervical dislocation on day 14, and hippocampus and retina were removed and homogenized in pre-chilled 0.2 M potassium phosphate buffer, pH 7.0. These homogenates were used to assay protein, GPx activity and MDA and GSH concentrations. Samples were kept frozen (−80° C.) until biochemical assays were performed. Blood was taken from the tail vein daily to assay blood glucose levels. Glycated hemoglobin was determined in blood samples obtained by heart puncture immediately before killing the animals.
MDA, a lipid peroxidation product, concentration was measured by liquid chromatography according to a modification of the method of Richard et al. (1992) as previously described (Romero et al., 1998). Briefly, 0.1 ml of sample (or standard solutions prepared daily from 1,1,3,3-tetramethoxypropane) and 0.75 ml of working solution (thiobarbituric acid 0.37% and perchloric acid 6.4%; 2/1, v/v) were mixed and heated to 95° C. for 1 h. After cooling (10 min in ice water bath), the flocculent precipitate was removed by centrifugation at 3,200×g for 10 min. The supernatant was neutralized and filtered (0.22 μm) prior to injection on an ODS column 5 μm column (250×4.6 mm). Mobile phase consisted in 50 mM phosphate buffer (pH 6.0): methanol (58:42, v/v). Isocratic separation was performed with 1.0 ml/min flow (HPLC System 325, Kontron) and detection at 532 nm (UV/VIS HPLC Detector 332, Kontron). Calibration curves were run daily.

hippocampal stem cells = assay: Hippocampal neurogenesis (BrdU immunostaining, cell counting) in diabetic mice; settings: two weeks after the induction of diabetes, preliminary data
Description: All animals were killed with a barbiturate overdose; each group had n>8. After intracardial perfusion with 4% paraformaldehyde, brains were cut into 40-μm-thick sections (200 μm, 1 every sixth section, used for electron microscopy analysis) with a vibratome (Leica VT100M).
Sections were immersed free-floating in 0.1 M phosphate buffer plus 0.05 % sodium azide. Twenty-four-well plates were used to keep the sections separate and preserve the order of the series. Sections that were 40 μm thick were used for cell counting. Incubations were performed in 0.1 M phosphate buffer with 0.2% Triton X-100 and 10% normal goat serum. Sections were blocked by incubating for 30 min in a solution of 3% hydrogen peroxide for diaminobenzidine (Sigma) staining. BrdU immunohistochemistry was preceded with DNA denaturation of 25 min of incubation in 2 M HCl at 37° C. The primary antibodies used were 1:200 mouse anti-BrdU (Dako). […]
Cell Counting. BrdU-positive cells were counted in sections spaced 400 μm apart by using a Nikon Eclipse E200 with a Nikon 40X Plan objective (0.65 numerical aperture) throughout the granule cell layer. […] Data were expressed as total, for the whole structure, and also subanalyzed in three regions: anterior, middle, and posterior.

[2] = lutein 100 mg/kg p.o. or insulin 500 mU/g body weight s.c. on days 4-13

Q: For `CC1=C[C@H](O)CC(C)(C)[C@H]1/C=C/C(C)=C/C=C/C(C)=C/C=C/C=C(C)/C=C/C=C(C)/C=C/C1=C(C)C[C@@H](O)CC1(C)C` [Lutein], which “escape latencies in the Morris water maze” value (alloxan diabetic mice) is on record?
A: The value was “diminished”.

Q: What about the “MDA levels in hippocampus” value ([1]; lutein 0.2 mg/kg p.o. or insulin 500 mU/g body weight s.c. on days 4-13) of the same compound?
A: Its value is “restored”.

Q: What about the “MDA levels in hippocampus” value ([1]; lutein 0.2 mg/kg p.o. or insulin 500 mU/g body weight s.c. on days 4-13, listed as lutein) of the same compound?
A: The value was “able to prevent this effect”.

Q: And the “MDA levels in ocular tissue” value [1, 2]?
A: Its value is “restored”.

Q: And the “MDA levels in serum” value [1, 2]?
A: The value was “restored”.

Q: What about the “MDA levels in ocular tissue” value ([1]; lutein 100 mg/kg p.o. or insulin 500 mU/g body weight s.c. on days 4-13, listed as lutein) of the same compound?
A: The value was “able to prevent this effect”.

Q: And the “proliferation of hippocampal stem cells” value (hippocampal stem cells)?
A: The value was “able to prevent the impairment in proliferation; also recorded: able to restore this alteration”.
